Strand notation (5' to 3'): a small letter for the sugar, then the base; units joined by * are phosphorothioate-linked, units joined directly phosphodiester-linked; [ ] holds rarer units or linkages, { } end groups; capitals alone tell only the bases. k = constrained ethyl (cEt); [5mC] = 5-methylcytosine; d = 2'-deoxy (DNA)
tested on: Yap1 mRNA; test: Antisense inhibition of human Yap1 in A-431 cells by cEt gapmers, single dose (Example 3, RTS36584); format: cell-based; conditions: Table 8; A-431 cells, 5,000 cells per well, free uptake, 2,000 nM, approximately 48 hours; RTS36584; normalized to RIBOGREEN; Yap1 mRNA relative to untreated control cells
In short: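 Human epidermoid A-431 cells take up gapmer (2,000 nM, free uptake, ~48 h); Yap1 transcript is then assayed by qRT-PCR with RiboGreen normalization and reported relative to untreated cells. Gapmers carry cEt-modified wings, phosphorothioate linkages and 5-methylcytosine throughout.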

Substance	YAP1 (% UTC)
958410 (antisense kT*kT*kT*dA*d[5mC]*d[5mC]*dA*dA*dA*dA*d[5mC]*dG*dA*kG*kG*kG) [Compound 958410]	70 % UTC
958392 (antisense k[5mC]*kT*kA*dT*dG*dA*dG*dT*d[5mC]*dA*dA*d[5mC]*d[5mC]*kT*kG*k[5mC]) [Compound 958392]	50 % UTC
958360 (antisense kT*k[5mC]*kG*dA*dA*d[5mC]*dA*dT*dG*d[5mC]*dT*dG*dT*kG*kG*kA) [Compound 958360]	12 % UTC
958356 (antisense kT*kT*kG*dA*dA*dG*dA*dA*dG*dG*dA*dG*dT*k[5mC]*kG*kG) [Compound 958356]	9 % UTC
958409 (antisense kT*kT*kA*d[5mC]*d[5mC]*dA*dA*dA*dA*d[5mC]*dG*dA*dG*kG*kG*kT) [Compound 958409]	99 % UTC

same assay, conditions: Table 9; A-431 cells, 5,000 cells per well, free uptake, 2,000 nM, approximately 48 hours; RTS36584; normalized to RIBOGREEN; Yap1 mRNA relative to untreated control cells

Substance	YAP1 (% UTC)
958556 (k[5mC]*kA*kA*d[5mC]*d[5mC]*dA*dA*d[5mC]*dT*dA*dT*dT*dA*k[5mC]*kT*kT; antisense) [Compound 958556]	10 % UTC

same assay, conditions: Table 10; A-431 cells, 5,000 cells per well, free uptake, 2,000 nM oligonucleotide, approx. 48 hours; primer probe set RTS36584; Yap1 mRNA normalized to RIBOGREEN, percent of untreated control

Substance	YAP1 (% UTC)
958527 (kG*kT*kA*dA*dG*dT*dA*dA*dG*dA*dA*d[5mC]*dA*kA*kT*k[5mC]; antisense) [Compound 958527]	4 % UTC
958607 (antisense k[5mC]*kA*kA*d[5mC]*dA*dT*dG*d[5mC]*dT*dT*dG*d[5mC]*dG*kA*kG*kG) [Compound 958607]	11 % UTC
958802 (antisense kA*kG*kA*dT*dA*dA*dT*d[5mC]*dA*dT*d[5mC]*d[5mC]*dT*k[5mC]*kA*kA) [Compound 958802]	25 % UTC
958547 (k[5mC]*kA*k[5mC]*dA*dT*dA*d[5mC]*dT*d[5mC]*dT*dA*dG*dT*kT*kA*k[5mC]; antisense) [Compound 958547]	4 % UTC

same assay, conditions: Table 11; A-431 cells, 5,000 cells per well, free uptake, 2,000 nM oligonucleotide, approx. 48 hours; primer probe set RTS36584; Yap1 mRNA normalized to RIBOGREEN, percent of untreated control

Substance	YAP1 (% UTC)
958693 (antisense kG*kT*kG*dG*dT*dG*dT*d[5mC]*dT*d[5mC]*dA*d[5mC]*dA*kG*kG*k[5mC]) [Compound 958693]	99 % UTC
958498 (kG*kA*kG*dT*dA*dT*dG*dT*dG*dG*d[5mC]*dA*dA*kT*kA*kA; antisense) [Compound 958498]	1 % UTC
958683 (kT*kA*kT*dT*dG*dT*dG*d[5mC]*dT*dG*d[5mC]*dA*dT*k[5mC]*kT*k[5mC]; antisense) [Compound 958683]	16 % UTC
958438 (antisense k[5mC]*kG*k[5mC]*d[5mC]*d[5mC]*d[5mC]*dG*dG*d[5mC]*dT*d[5mC]*d[5mC]*dA*k[5mC]*kT*kG) [Compound 958438]	61 % UTC
958653 (kT*kT*kA*d[5mC]*dA*d[5mC]*dA*d[5mC]*dA*dG*dG*d[5mC]*dT*kA*kT*kG; antisense) [Compound 958653]	17 % UTC
958798 (antisense kT*kG*k[5mC]*dA*dG*dT*dA*dT*dA*dA*dT*dA*dT*k[5mC]*k[5mC]*kT) [Compound 958798]	3 % UTC

same assay, conditions: Table 12; A-431 cells, 5,000 cells per well, free uptake, 2,000 nM modified oligonucleotide, approx. 48 hours; RTS36584; normalized to RIBOGREEN; Yap1 mRNA relative to untreated control cells

Substance	YAP1 (% UTC)
958574 (k[5mC]*kT*kG*dG*d[5mC]*dA*dA*dA*dT*dT*dA*dT*dA*kG*kG*k[5mC]; antisense) [Compound 958574]	13 % UTC
958709 (antisense kT*k[5mC]*kA*dA*dT*d[5mC]*dT*dA*dT*dG*dA*dG*dA*k[5mC]*k[5mC]*k[5mC]) [Compound 958709]	57 % UTC
958554 (kA*kA*k[5mC]*d[5mC]*dA*dT*dT*dA*dT*dT*dA*d[5mC]*dT*k[5mC]*k[5mC]*kT; antisense) [Compound 958554]	1 % UTC

same assay, conditions: Table 13; A-431 cells, 5,000 cells per well, free uptake, 2,000 nM modified oligonucleotide, approx. 48 hours; RTS36584; normalized to RIBOGREEN; Yap1 mRNA relative to untreated control cells

Substance	YAP1 (% UTC)
958670 (kG*kG*kT*d[5mC]*dT*dT*dG*dG*dT*dG*dA*dT*dT*kG*kG*k[5mC]; antisense) [Compound 958670]	20 % UTC
958550 (k[5mC]*k[5mC]*kT*dG*dT*dA*dG*dA*d[5mC]*dA*d[5mC]*dA*dT*kA*k[5mC]*kT; antisense) [Compound 958550]	4 % UTC
958775 (antisense kG*kT*k[5mC]*dT*dA*dT*dA*d[5mC]*dG*dG*dG*dA*dG*kA*kT*kT) [Compound 958775]	29 % UTC
958615 (antisense kT*kG*kG*dT*d[5mC]*dT*dT*dG*dT*dT*d[5mC]*dT*dT*kA*kT*kG) [Compound 958615]	3 % UTC
958785 (antisense kG*k[5mC]*kA*dA*dT*d[5mC]*d[5mC]*dA*d[5mC]*dA*dA*dT*dT*k[5mC]*k[5mC]*kA) [Compound 958785]	2 % UTC
958740 (antisense k[5mC]*kG*kG*d[5mC]*dA*d[5mC]*d[5mC]*dA*dA*dA*d[5mC]*dA*d[5mC]*k[5mC]*k[5mC]*kA) [Compound 958740]	57 % UTC
958750 (antisense kT*kG*kT*dA*dA*dG*dA*dG*dG*dA*dG*dA*d[5mC]*k[5mC]*kA*k[5mC]) [Compound 958750]	28 % UTC
958780 (antisense kT*k[5mC]*kA*dA*d[5mC]*dT*dA*d[5mC]*dT*dT*dT*dT*d[5mC]*kA*kG*k[5mC]) [Compound 958780]	24 % UTC

same assay, conditions: Table 26; Yap1 mRNA by 3-10-3 cEt gapmers targeting SEQ ID NO.: 1, and 2; percent of untreated control

Substance	YAP1 (% UTC)
1075596 (antisense kA*kT*kA*dT*dA*dA*dT*dA*d[5mC]*dA*dT*d[5mC]*dT*k[5mC]*k[5mC]*k[5mC]) [compound 1075596]	91 % UTC
1076364 (antisense k[5mC]*k[5mC]*kA*dT*dA*dA*dA*dA*dG*dT*d[5mC]*d[5mC]*dA*k[5mC]*kT*kA) [compound 1076364]	30 % UTC
1074860 (kA*kA*kA*dG*dG*dT*dA*dA*d[5mC]*dA*dT*dT*dG*kG*kT*kA; antisense) [compound 1074860]	9 % UTC

same assay, conditions: Table 27; Yap1 mRNA by 3-10-3 cEt gapmers targeting SEQ ID NO.: 1, and 2; percent of untreated control

Substance	YAP1 (% UTC)
1074701 (antisense kG*kT*kG*dT*dA*dA*dG*dA*d[5mC]*dA*dA*dG*dT*k[5mC]*kT*kT) [compound 1074701]	17 % UTC
1075885 (antisense k[5mC]*kA*kT*dT*dA*dG*dT*dA*dA*dT*dG*dA*d[5mC]*kT*kA*kA) [compound 1075885]	112 % UTC
1075309 (antisense kT*kA*kA*dT*dT*dA*dA*dA*d[5mC]*dG*dA*dA*dA*k[5mC]*kA*k[5mC]) [compound 1075309]	110 % UTC
1075469 (antisense kT*kG*kA*dT*dA*dT*dA*dA*dT*dG*dA*d[5mC]*d[5mC]*kA*kA*kG) [compound 1075469]	25 % UTC

same assay, conditions: Table 28; Yap1 mRNA as percent of untreated control; 3-10-3 cEt gapmers targeting SEQ ID NO.: 1, and 2

Substance	YAP1 (% UTC)
1074254 (antisense kA*kT*k[5mC]*dT*dG*dG*dG*dA*d[5mC]*dA*dG*d[5mC]*dA*kT*kG*kG) [compound 1074254]	13 % UTC

same assay, conditions: Table 29; Yap1 mRNA as percent of untreated control; 3-10-3 cEt gapmers targeting SEQ ID NO.: 1, and 2

Substance	YAP1 (% UTC)
1076175 (k[5mC]*kA*kA*dT*dA*dG*dG*dT*dA*dA*d[5mC]*dA*dG*kG*kT*kA; antisense) [compound 1076175]	15 % UTC
1075759 (k[5mC]*k[5mC]*kT*dT*dA*dT*dA*dA*dA*dT*dT*dA*dT*kG*kA*k[5mC]; antisense) [compound 1075759]	44 % UTC
1075151 (kT*kT*kT*dA*dA*dA*dA*dG*dT*dA*d[5mC]*d[5mC]*dA*kG*k[5mC]*kG; antisense) [compound 1075151]	60 % UTC
1074671 (antisense k[5mC]*kA*kA*dG*dT*dA*dG*d[5mC]*dT*dT*dT*dG*dA*kT*k[5mC]*kT) [compound 1074671]	8 % UTC
1075567 (kG*kA*kT*dA*dT*dA*dT*dA*dA*d[5mC]*dA*dG*dG*k[5mC]*k[5mC]*kA; antisense) [compound 1075567]	65 % UTC

same assay, conditions: Table 34; Yap1 mRNA as percent of untreated control; 3-10-3 cEt gapmers targeting SEQ ID NO: 1 and 2; single dose

Substance	YAP1 (% UTC)
1074228 (antisense kG*kA*k[5mC]*dT*dG*dT*d[5mC]*dG*dA*dA*dG*dA*dT*kG*k[5mC]*kT) [compound 1074228]	17 % UTC
1076500 (k[5mC]*kA*kA*dT*dT*dA*dA*dG*dA*dT*d[5mC]*dA*dA*k[5mC]*kA*kT; antisense) [compound 1076500]	99 % UTC
1075636 (antisense k[5mC]*kA*kA*dT*dA*dA*dA*d[5mC]*dA*d[5mC]*d[5mC]*dT*d[5mC]*kG*k[5mC]*k[5mC]) [compound 1075636]	91 % UTC

same assay, conditions: Table 35; Yap1 mRNA as percent of untreated control; 3-10-3 cEt gapmers targeting SEQ ID NO: 1 and 2; single dose

Substance	YAP1 (% UTC)
1074197 (antisense kT*kG*k[5mC]*d[5mC]*d[5mC]*dG*dG*dG*dT*d[5mC]*d[5mC]*dG*dG*kA*k[5mC]*kG) [compound 1074197]	91 % UTC
1076021 (k[5mC]*kA*kT*dT*dA*dA*dT*dA*dA*dA*dG*dT*dT*kA*k[5mC]*k[5mC]; antisense) [compound 1076021]	95 % UTC
1076437 (kG*kA*kA*dG*dA*dA*dT*dA*dG*d[5mC]*dA*dT*d[5mC]*kT*kG*kA; antisense) [compound 1076437]	19 % UTC

From US11214803B2, “Modulators of YAP1 expression” (Ionis Pharmaceuticals, Inc., priority 2019, dated 2022)
